Measurements reported in patent publication US11123324B2, “Immunomodulator” (priority 2016, dated 2021).
“Also recorded” adds a separate entry of the source.

Tests used:
[1] = tested on: B cells (mouse splenic cells); test: In vitro class switching induction assay in mouse splenic cell culture with anti-mouse/rat CD40, isotype antibody titer by ELISA; type: cell-based; conditions: for IgE induction, secondary screening / IgG1 induction, secondary screening: ELISA; for IgE induction, secondary screening / IgG1 induction, secondary screening / IgA induction, secondary screening: 3.75 μM; for IgA induction, secondary screening: IgA sandwich ELISA, day 10 after addition; for IgE antibody production on day 7 / total IgG antibody production on day 7: Indolactam V 5, 10 μM
Method: Under conditions of free access to food and water, 5- to 8-week-old wild-type BALB/cAJcl (purchased from CLEA Japan, Inc.) was euthanized by cervical dislocation under isoflurane anesthesia. 70% Ethanol was sprayed, left abdomen was incised and the spleen was aseptically isolated. The spleen was subjected to a mild crushing treatment with two sterilized glass slides in a culture petri dish containing 5 ml of cell culture medium (RPMI1640 added with 10% FCS, 0.05 μM 2 ME, 80 μg/ml gentamicin) to give a splenic single cell suspension. The cell suspension was placed in a 15 ml tube, stood for 5 min, and the supernatant free of tissue debris was transferred to a new 15 ml tube. A washing operation was performed twice with the above-mentioned cell culture medium to give the number of viable cells. B cells occupy 35% of the viable cells and the number of B cells was obtained by calculation.
Based on the B cell number obtained in Example 1, the splenic cell suspension was diluted with the above-mentioned cell culture medium to 5×10^5/ml B cells, and the cells were added to a 24-well culture dish. The compound and cytokine were added to each well as shown in the results. […]
[…] As for ELISA capture antibody, each isotype antibody (unlabeled, mentioned later) was diluted to 2 μg/ml with 0.05 M Na2CO3 solution, added to ELISA plate (C96 MAXISORP NUNC-Immunoplate, Thermo Scientific) at 50 μl/well, and the plate was coated overnight at 4° C.
The next day, the coated ELISA plate was washed 3 times with 1×PBS. After washing, 1% BSA-added 1×PBS (50 μl) was added to each well and blocking was carried out at room temperature for 1 hr. During the blocking reaction, a dilution series of each culture supernatant was prepared using 1% BSA-added 1×PBS. The diluted sample was added to the plate after blocking at 50 μl/well, and the mixture was reacted at room temperature for 1 hr. Thereafter, a washing operation was performed 3 times with 0.05% Tween 20-added 1×PBS solution. Then, the secondary antibody (alkaline phosphatase-labeled) (0.5 μg/ml) that recognizes each isotype was added at 50 μl/well, and the mixture was reacted at room temperature for 1 hr. A washing operation was performed 3 times with 0.05% Tween 20-added 1×PBS solution, a substrate solution (Phosphatase substrate Sigma 104) was added, the mixture was placed under shading at room temperature to allow for color development, and the absorbance (405 nm) was measured with a plate reader. The antibody titer was shown as a relative absorbance value in a graph, or the absolute value was calculated from comparison with the standard isotype antibody and shown graphically.
In the primary screening, 3,337 kinds of compounds (provided by Drug Discovery Initiative, The University of Tokyo) were subjected to in vitro class switching assay. The final concentration of the compounds was 3.75 μM, and DMSO was added at a final concentration of 0.25% and anti-mouse/rat CD40 was added at a final concentration of 1 μg/ml to all wells including the wells added with cytokine. As a negative control, DMSO and CD40 were added.
In the secondary screening, 22 kinds of the candidate compounds obtained by the primary screening were screened. The culture conditions were the same as those in the primary screening. As the positive control, each isotype control antibody (1 μg/ml) was added. […] Compound No. 2 (Sapintoxin D), No. 12 (PMA) and No. 18 (ROPA) were all protein kinase C (PKC) activators.
From the results of the secondary screening, a substance that specifically induces IgA is a PKC activator and it has a characteristic cyclic structure. As compounds having a similar structure, 17 kinds of compounds (K1-K17) including the above-mentioned 3 kinds were provided by the library of Drug Discovery Initiative, The University of Tokyo. […]

[2] = tested on: alpha germline transcript; test: RT-PCR confirmation of expression of alpha germline transcript in stimulated splenic cells; type: cell-based, mouse; conditions: day 3 of stimulation; for expression of alpha germline transcript (RT-PCR): FIG. 11
Method: (§1) As evidence that class switching is in progress, the expression of alpha germline transcript and AID was confirmed by RT-PCR. Splenic cells were first stimulated with compound or cytokine under the same conditions as in Example 2. On day 3 of stimulation, floating cells were recovered and total RNA was extracted. cDNA was synthesized using random primers and RT-PCR was performed using the following primers.
(§2) PCR was performed using rTaq (TAKARA) and under the following conditions: […]

[3] = stated as known / considered, not tested; cited from earlier work
B cells (splenic cells) = test: Dose dependency of class switching induction by compound alone (no CD40), isotype ELISA; type: cell-based, mouse; conditions: 7 days; for IgA production by single stimulation free of CD40: each concentration tested (bryostatin 1 0-50 nM, 0-100 nM; Indolactam V 0-100 μM); for induction of IgE by single stimulation free of CD40 / induction of IgG by single stimulation free of CD40: each concentration tested
Method: Indolactam V and bryostatin 1 (Santa Cruz Biotechnology) were purchased, and induction of class switching was performed using splenic cells. To confirm dose dependency of compounds, stimulation was performed at the concentrations shown in FIG. 12, FIG. 13 and FIG. 14. For cell culture, the cells were added to each well of a 6 well plate at 1.0×10^6 B cells/1 ml/well and cultured for 7 days. The cells were cultured without adding anti-mouse/rat CD40 to all wells and the negative control was added with culture medium alone. Stimulation with each cytokine was used as a positive control. The final concentration of each cytokine was 1 μg/ml for anti-mouse/rat CD40, 12.5 ng/ml for IL-4, 20 μg/ml for LPS as in the above-mentioned experiments.
The antibody titer measurement of each isotype by ELISA was performed by a method similar to that mentioned above. As a result, it was confirmed at each concentration tested that IgA was produced and induction of IgG and IgE was not observed by single stimulation with each of bryostatin 1 and Indolactam V free of CD40.

AID = test: RT-PCR confirmation of expression of AID in stimulated splenic cells; type: cell-based, mouse; conditions: day 3 of stimulation; for expression of AID (RT-PCR): FIG. 11
Method: as §1, §2

cultured splenic cells = test: Proliferation / cell number of cultured splenic cells under stimulation; type: cell-based, mouse
Method: Based on the B cell number obtained in Example 1, the splenic cell suspension was diluted with the above-mentioned cell culture medium to 5×10^5/ml B cells, and the cells were added to a 24-well culture dish. The compound and cytokine were added to each well as shown in the results. DMSO was added such that the concentration of DMSO, which is a solvent of the compound was equivalent in each well (final concentration 0.25%). A mixed culture medium of the compound and splenic cells was subjected to static culture for one week under conditions of 37° C., 5% CO2.
Thus, a substance that has properties as a PKC activator but is free of carcinogenicity was searched for and bryostatin 1 (Santa Cruz Biotechnology sc-201407) was obtained as a candidate (FIGS. 6 and 7). […] Since bryostatin is a substance having a structure completely different from those of the compounds tested in the tertiary screening, those of ordinary skill in the art in consideration of the results of Example 3 and Example 4 readily appreciate that PKC activators in general can be used as substances that induce specific class switching to IgA. In the experiments shown in FIG. 6 and FIG. 7, the final concentration of Indolactam V was 5 μM and 10 μM from the left, and the final concentration of bryostatin 1 was 1 nM, 5 nM, 10 nM from the left.
It was considered to be more than the survival and maintenance of IgA-producing cells originally existed in the spleen. Expression of both transcripts was low when CD40 was not added for bryostatin 1. This may reflect the difference in the amount of cDNA used for RT-PCR.

Row | Compound | IgE induction, secondary screening ([1]; with CD40) | IgG1 induction, secondary screening ([1]; with CD40) | expression of alpha germline transcript (RT-PCR) [2] | carcinogenicity [3] | IgE antibody production on day 7 ([1]; bryostatin 1 1, 5, 10 nM) | total IgG antibody production on day 7 ([1]; bryostatin 1 1, 5, 10 nM) | IgA production by single stimulation free of CD40 (B cells (splenic cells)) | induction of IgE by single stimulation free of CD40 (B cells (splenic cells)) | induction of IgG by single stimulation free of CD40 (B cells (splenic cells)) | expression of AID (RT-PCR) (AID) | other results
1 | CNc1ccccc1C(=O)O[C@@H]1[C@@H](C)[C@@]2(O)[C@@H](C=C(CO)C[C@]3(O)C(=O)C(C)=C[C@@H]23)[C@@H]2C(C)(C)[C@]12OC(C)=O [Compound No. 2, Sapintoxin D] | did not induce | did not induce |  |  |  |  |  |  |  |  | IgA induction, secondary screening ([1]; with CD40): induced IgA; also recorded: specifically induce IgA
2 | CC(C)[C@H]1C(=O)N[C@H](CO)Cc2c[nH]c3cccc(c23)N1C [Indolactam V] |  |  | observed | strong carcinogenicity | scarcely produced | scarcely produced | produced; also recorded: Only the induction of IgA is shown to occur | not observed | not observed | observed | IgA inducing activity, tertiary screening ([1]; culture supernatant one week later, with CD40, Indolactam V 1-7 μM): very strong; IgA specific class switching, tertiary screening ([1]; triplicate, culture supernatant one week later, with CD40, Indolactam V 1, 3, 3.75, 5, 7 μM): induced IgA specific class switching; also recorded: best effect
3 | CCC/C=C/C=C/C(=O)O[C@H]1/C(=C/C(=O)OC)C[C@H]2C[C@H]([C@@H](C)O)OC(=O)C[C@H](O)C[C@@H]3C[C@H](OC(C)=O)C(C)(C)[C@](O)(C[C@@H]4C/C(=C/C(=O)OC)C[C@H](/C=C/C(C)(C)[C@]1(O)O2)O4)O3 [bryostatin 1] |  |  | observed | did not show carcinogenicity | scarcely produced | scarcely produced | produced; also recorded: Only the induction of IgA is shown to occur | not observed | not observed | observed | proliferation of cultured cells, compound alone (cultured splenic cells; bryostatin 1 alone (Example 5)): scarcely observed; proliferation of cultured cells (cultured splenic cells; bryostatin 1 stimulation (Example 4)): scarcely observed; cell number on day 7 (cultured splenic cells; stimulated with bryostatin 1, day 7): extremely small; expression of alpha germline transcript (RT-PCR), CD40 not added ([2]; without CD40): low; IgA induction potency compared with Indolactam V ([1]; Example 4, FIG. 6): inferior; specific class switching to IgA (Example 4) ([1]; Example 4, FIGS. 6 and 7): induces specific class switching to IgA; IgA antibody titer on day 5 compared to the negative control (0.02% DMSO+CD40) ([1]; bryostatin 1 1, 5, 10 nM, with CD40, day 5): increased significantly; IgA antibody titer on day 7 ([1]; bryostatin 1 1, 5, 10 nM, with CD40, day 7): low; expression of AID (RT-PCR), CD40 not added (AID; without CD40): low
4 | CCCCCCCCCCCCCC(=O)O[C@@H]1[C@@H](C)[C@@]2(O)[C@@H](C=C(CO)C[C@]3(O)C(=O)C(C)=C[C@@H]23)[C@@H]2C(C)(C)[C@]12OC(C)=O [compound 12, phorbol 12-myristate 13-acetate] | did not induce | did not induce |  |  |  |  |  |  |  |  | IgA induction, secondary screening ([1]; with CD40, listed as No. 12): induced IgA; also recorded: specifically induce IgA
5 | Resiniferonol-9,13,14-orthophenyl acetate [compound 18] | did not induce | did not induce |  |  |  |  |  |  |  |  | IgA induction, secondary screening ([1]; with CD40, listed as No. 18): induced IgA; also recorded: specifically induce IgA
